The supplement of paper PMC6045584

Key:
Test in all cases: area under dose-response curve of surviving fraction (unscaled, Aref=0) (surviving fraction x log10(nM)); higher = more resistant
Conditions in all cases: exposure time: 5 days; dose range 0.5-1000 nM
[1] = compound: CCn1c(C(=O)N(C2CC2)C2CC2)cc2c3c(ncn3C)c(Nc3cc(C)n(C)n3)nc21
Summary of the method: (§1)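 Three screens per tumour cell line were run in 384-well plates at eight inhibitor concentrations from 0.5 to 1000 nM over five days. Surviving fractions, from CellTiter-Glo luminescence normalised to DMSO-only wells, were fitted with 3-parameter logistic curves in the drc R package. The reported area under the curve is the unscaled activity area. It spans log10 dose, and Aref is 0.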

[2] = compound: CNC(=O)c1cc(Oc2ccc(NC(=O)Nc3ccc(Cl)c(C(F)(F)F)c3)cc2)ccn1 [SORAFENIB]
Summary of the method: as §1

[3] = compound: CNCc1ccc(-c2[nH]c3cc(F)cc4c3c2CCNC4=O)cc1
Summary of the method: as §1

[4] = compound: COc1cc2c(Oc3ccc(NC(=O)C4(C(=O)Nc5ccc(F)cc5)CC4)cc3F)ccnc2cc1OCCCN1CCOCC1 [FORETINIB]
Summary of the method: as §1

[5] = compound: COc1cc2ncnc(Nc3ccc(F)c(Cl)c3)c2cc1NC(=O)/C=C/CN1CCCCC1
Summary of the method: as §1

[6] = compound: C[C@@H](Oc1cc(-c2cnn(C3CCNCC3)c2)cnc1N)c1c(Cl)ccc(F)c1Cl [CRIZOTINIB]
Summary of the method: as §1

[7] = compound: C[C@@H](Oc1cc(-c2cnn(C3CCNCC3)c2)cnc1N)c1c(Cl)ccc(F)c1Cl
Summary of the method: as §1

[8] = compound: C[C@]12CC[C@H](O)CC1=CC[C@@H]1[C@@H]2CC[C@]2(C)C(c3cccnc3)=CC[C@@H]12 [ABIRATERONE]
Summary of the method: as §1

[9] = compound: Cc1nc(Nc2ncc(C(=O)Nc3c(C)cccc3Cl)s2)cc(N2CCN(CCO)CC2)n1 [DASATINIB]
Summary of the method: as §1

[10] = compound: Cn1nnc2c(C(N)=O)ncn2c1=O [TEMOZOLOMIDE]
Summary of the method: as §1

[11] = compound: NS(=O)(=O)OC[C@@H]1C[C@@H](n2ccc3c(N[C@H]4CCc5ccccc54)ncnc32)C[C@@H]1O [MLN-4924]
Summary of the method: as §1

[12] = compound: O=C(c1cc(Cc2n[nH]c(=O)c3ccccc23)ccc1F)N1CCN(C(=O)C2CC2)CC1 [OLAPARIB]
Summary of the method: as §1

[13] = compound: Oc1nc(-c2ccc(C(F)(F)F)cc2)nc2c1CSCC2 [XAV-939]
Summary of the method: as §1

## HS57T LUNG
[1]
  area under dose-response curve: 3.21
[2]
  area under dose-response curve: 3.44
[3]
  area under dose-response curve: 3.17
[4]
  area under dose-response curve: 3.04
[5]
  area under dose-response curve: 3.17
[6]
  area under dose-response curve: 3.12
[7]
  area under dose-response curve: 2.97
[8]
  area under dose-response curve: 3.71
[9]
  area under dose-response curve: 1.87
[10]
  area under dose-response curve: 3.27
[11]
  area under dose-response curve: 2.38
[12]
  area under dose-response curve: 3.54
[13]
  area under dose-response curve: 3.24
